# Measured values taken from patent US8420657B2 (Novartis AG, priority 2008, dated 2013).
# Like-named read-outs stand apart in the source and are kept apart here.
# Tests used:
# Assay type in all cases: biochemical
# [1] = target: T1, cKit (Homo sapiens, UniProt P10721); assay: cKit LanthaScreen TR-FRET kinase phosphorylation assay; details: recombinant kinase domain
# T1 construct: using the recombinant domains of cMet, cKit, ALK and PDGFRalpha kinases
# Method: (§1) The compounds are assayed in an antibody based kinase phosphorylation assay using the recombinant domains of cMet, cKit, ALK and PDGFRalpha kinases and a generic phospho-tyrosine peptide substrate. LanthaScreen™ is the detection of Time-Resolved Fluorescence Resonance Energy Transfer (TR-FRET) using lanthanide chelates to measure interactions between various binding partners. In a TR-FRET kinase assay, a long-lifetime lanthanide donor species is conjugated to an antibody that specifically binds to a phosphorylated product of a kinase reaction that is labeled with a suitable acceptor fluorophore. This antibody-mediated interaction brings the lanthanide donor and the acceptor into proximity such that resonance energy transfer can take place, resulting in a detectible increase in FRET. The LanthaScreen is run at ambient temperature and terminated by the addition of stop solution, followed by Tb-labeled P-20 antibody. After incubating in the dark, the plates are transferred to a fluorescence reader for counting. The effect of compound on the enzymatic activity is in all assays obtained from the linear progress curves and determined from one reading (end point measurement).
# [2] = target: T2, ALK (Homo sapiens, UniProt Q9UM73); assay: ALK LanthaScreen TR-FRET kinase phosphorylation assay; details: recombinant kinase domain
# T2 construct: using the recombinant domains of cMet, cKit, ALK and PDGFRalpha kinases
# T2 sequence (Q9UM73 1116-1392 limits assumed, species assumed): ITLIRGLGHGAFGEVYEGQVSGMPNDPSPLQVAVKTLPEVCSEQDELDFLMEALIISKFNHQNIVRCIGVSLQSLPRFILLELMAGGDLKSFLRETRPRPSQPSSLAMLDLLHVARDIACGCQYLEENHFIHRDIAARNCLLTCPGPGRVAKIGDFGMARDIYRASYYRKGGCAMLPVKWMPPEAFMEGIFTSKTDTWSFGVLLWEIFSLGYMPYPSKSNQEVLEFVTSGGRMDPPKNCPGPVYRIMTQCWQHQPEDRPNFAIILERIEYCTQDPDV
# Method: as §1
# [3] = target: T3, PDGFRalpha (Homo sapiens, UniProt P16234); assay: PDGFRalpha LanthaScreen TR-FRET kinase phosphorylation assay; details: recombinant kinase domain, read-out: PDGFRa/IC50
# T3 construct: using the recombinant domains of cMet, cKit, ALK and PDGFRalpha kinases
# T3 sequence (P16234 593-954 limits assumed, species assumed): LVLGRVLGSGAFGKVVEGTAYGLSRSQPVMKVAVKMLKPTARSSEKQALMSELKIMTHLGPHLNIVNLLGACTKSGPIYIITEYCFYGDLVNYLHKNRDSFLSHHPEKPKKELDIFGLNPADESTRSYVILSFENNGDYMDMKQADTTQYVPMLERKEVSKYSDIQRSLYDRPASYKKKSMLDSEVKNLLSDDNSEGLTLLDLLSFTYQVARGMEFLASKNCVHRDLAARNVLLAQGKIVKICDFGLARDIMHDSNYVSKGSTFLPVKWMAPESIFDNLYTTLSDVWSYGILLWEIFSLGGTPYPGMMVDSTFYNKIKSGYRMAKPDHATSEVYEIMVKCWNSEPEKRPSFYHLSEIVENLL
# Method: as §1
# [4] = target: T4, cMet (Homo sapiens, UniProt P08581); assay: cMet LanthaScreen TR-FRET kinase phosphorylation assay; details: recombinant kinase domain
# T4 construct: using the recombinant domains of cMet, cKit, ALK and PDGFRalpha kinases
# T4 sequence (P08581 1078-1345 limits assumed): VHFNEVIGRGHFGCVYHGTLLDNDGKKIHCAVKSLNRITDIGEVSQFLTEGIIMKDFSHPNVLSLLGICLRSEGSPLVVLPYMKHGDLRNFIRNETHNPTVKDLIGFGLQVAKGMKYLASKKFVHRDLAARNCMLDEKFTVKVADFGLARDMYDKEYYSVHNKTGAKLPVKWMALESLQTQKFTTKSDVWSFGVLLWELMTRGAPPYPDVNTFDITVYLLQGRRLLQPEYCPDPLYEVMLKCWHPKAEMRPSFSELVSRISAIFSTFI
# Method: as §1
# [5] = target: T5, GST-JAK2(808-1132) (Homo sapiens, UniProt O60674); assay: JAK2 kinase assay (Caliper mobility shift, LabChip 3000)
# T5 construct: GST-JAK2(808-1132); purchased Invitrogen (Carlsbad, USA) #4288
# T5 sequence (O60674 808-1132): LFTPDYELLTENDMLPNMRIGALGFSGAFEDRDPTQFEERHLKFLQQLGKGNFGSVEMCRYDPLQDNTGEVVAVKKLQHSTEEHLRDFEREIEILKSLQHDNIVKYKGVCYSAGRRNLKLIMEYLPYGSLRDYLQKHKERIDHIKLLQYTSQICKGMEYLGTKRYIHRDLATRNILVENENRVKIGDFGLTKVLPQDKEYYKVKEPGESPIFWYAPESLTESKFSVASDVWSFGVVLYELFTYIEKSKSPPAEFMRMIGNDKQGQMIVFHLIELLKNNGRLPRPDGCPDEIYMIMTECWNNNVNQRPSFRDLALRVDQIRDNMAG
# Procedure, shortened: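 Recombinant GST-JAK2(808-1132) kinase domain with FITC-labelled JAK3tide peptide substrate and ATP; 60 min at 30 °C, EDTA stop. Substrate/product ratio read by microfluidic mobility shift; compounds at 8 final concentrations, 10 to 0.003 μM.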
# T1 sequence (P10721 589-937 limits assumed): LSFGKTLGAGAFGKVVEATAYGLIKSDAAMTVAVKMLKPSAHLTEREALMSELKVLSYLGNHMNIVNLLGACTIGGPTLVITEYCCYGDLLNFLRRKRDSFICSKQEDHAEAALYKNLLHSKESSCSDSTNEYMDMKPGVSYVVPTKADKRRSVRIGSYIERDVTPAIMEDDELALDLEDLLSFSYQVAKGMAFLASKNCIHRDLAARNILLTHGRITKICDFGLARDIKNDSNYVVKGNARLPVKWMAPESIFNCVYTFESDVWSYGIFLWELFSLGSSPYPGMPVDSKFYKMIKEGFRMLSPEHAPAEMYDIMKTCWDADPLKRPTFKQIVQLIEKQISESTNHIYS
Compound,IC50 [1],IC50 [2],IC50 [3],IC50 [4],IC50 [5],IC50 ([5]; Table 3)
"CC(C)Oc1ccc(Nc2ncc3ccn(-c4ccc(C#N)cc4)c3n2)cc1 [Example 96, 4-[2-(4-Isopropoxy-phenylamino)-pyrrolo[2,3-d]pyrimidin-7-yl]-benzonitrile]",> 10 µM,> 10 µM,> 10 µM,> 10 µM,0.0485 µM,0.0485 µM
"COc1cc(Nc2ncc3ccn(-c4ccc(C(=O)N5CCOCC5)c(F)c4)c3n2)ccc1F [Example 151, {2-Fluoro-4-[2-(4-fluoro-3-methoxy-phenylamino)-pyrrolo[2,3-d]pyrimidin-7-yl]-phenyl}-morpholin-4-yl-methanone]",> 10 µM,> 10 µM,> 10 µM,> 10 µM,0.0057 µM,0.0057 µM
"COCc1ccc(Nc2ncc3ccn(-c4cc(F)c(CN5CCS(=O)(=O)CC5)c(F)c4)c3n2)cc1 [Example 184, {7-[4-(1,1-Dioxido-thiomorpholin-4-ylmethyl)-3,5-difluoro-phenyl]-7H-pyrrolo[2,3-d]pyrimidin-2-yl}-(4-methoxymethyl-phenyl)-amine]",> 10 µM,> 10 µM,> 10 µM,> 10 µM,< 0.003 µM,< 0.003 µM
"CN1CCN(C(=O)c2cccc(Nc3ncc4ccn(-c5cc(F)c(CN6CCOCC6)c(F)c5)c4n3)c2)CC1 [Example 203, {3-[7-(3,5-Difluoro-4-morpholin-4-ylmethyl-phenyl)-7H-pyrrolo[2,3-d]pyrimidin-2-ylamino]-phenyl}-(4-methyl-piperazin-1-yl)-methanone]",4.7 µM,> 10 µM,> 10 µM,6.9 µM,0.0074 µM,0.0064 µM
"Cc1ccc(Nc2ncc3ccn(-c4ccc(C(=O)N5CCOCC5)cc4)c3n2)cn1 [Example 238, {4-[2-(6-Methyl-pyridin-3-ylamino)-pyrrolo[2,3-d]pyrimidin-7-yl]-phenyl}-morpholin-4-yl-methanone]",> 10 µM,> 10 µM,6.6 µM,8.2 µM,0.0111 µM,0.0111 µM
"Cc1ccc(Nc2ncc3ccn(-c4ccc(C(=O)N5CCN(CCO)CC5)cc4)c3n2)cc1C [Example 300, {4-[2-(3,4-Dimethyl-phenylamino)-pyrrolo[2,3-d]pyrimidin-7-yl]-phenyl}-[4-(2-hydroxy-ethyl)-piperazin-1-yl]-methanone]",3.4 µM,> 10 µM,7.7 µM,> 10 µM,0.0175 µM,0.0175 µM
"Cn1cc(Nc2ncc3ccn(-c4ccc(CC(=O)N5CCOCC5)cc4)c3n2)cn1 [Example 301, 2-{4-[2-(1-Methyl-1H-pyrazol-4-ylamino)-pyrrolo[2,3-d]pyrimidin-7-yl]-phenyl}-1-morpholin-4-yl-ethanone]",4.75 µM,> 10 µM,5.6 µM,3.6 µM,< 0.003 µM,< 0.003 µM
"Cc1cc(Nc2ncc3ccn(-c4ccc(C(=O)N5CCOCC5)c(F)c4)c3n2)nn1C [Example 311, {4-[2-(1,5-Dimethyl-1H-pyrazol-3-ylamino)-pyrrolo[2,3-d]pyrimidin-7-yl]-2-fluoro-phenyl}-morpholin-4-yl-methanone]",> 10 µM,> 10 µM,> 10 µM,> 10 µM,0.031 µM,0.031 µM
"Cc1ccc(Nc2ncc3ccn(-c4cc(F)c(CN5CCOCC5)c(F)c4)c3n2)cc1CN1CCNCC1 [Example 332, [7-(3,5-Difluoro-4-morpholin-4-ylmethyl-phenyl)-7H-pyrrolo[2,3-d]pyrimidin-2-yl]-(4-methyl-3-piperazin-1-ylmethyl-phenyl)-amine]",1.55 µM,9.05 µM,6.7 µM,7.57 µM,≤ 0.003 µM,–
"Fc1cc(-n2ccc3cnc(Nc4ccnc(CN5CCNCC5)c4)nc32)cc(F)c1CN1CCOCC1 [Example 372, [7-(3,5-Difluoro-4-morpholin-4-ylmethyl-phenyl)-7H-pyrrolo[2,3-d]pyrimidin-2-yl]-(2-piperazin-1-ylmethyl-pyridin-4-yl)-amine]",5.7 µM,> 10 µM,> 10 µM,> 10 µM,0.0047 µM,0.0047 µM
"C[C@@H]1CN(c2ccc(Nc3ncc4ccn(-c5ccc(NS(C)(=O)=O)cc5)c4n3)cn2)C[C@H](C)N1 [Example 380, N-(4-{2-[6-(cis-3,5-Dimethyl-piperazin-1-yl)-pyridin-3-ylamino]-pyrrolo[2,3-d]pyrimidin-7-yl}-phenyl)-methanesulfonamide]",1.7 µM,> 10 µM,5.3 µM,5.4 µM,0.0032 µM,0.0032 µM
"Cc1ccc(Nc2ncc3ccn(-c4cc(F)c(CN5CCNC(=O)C5)c(F)c4)c3n2)cc1CN1CCNCC1 [Example 382, 4-{2,6-Difluoro-4-[2-(4-methyl-3-piperazin-1-ylmethyl-phenylamino)-pyrrolo[2,3-d]pyrimidin-7-yl]-benzyl}-piperazin-2-one]",1.1 µM,> 10 µM,7.7 µM,2.4 µM,0.0035 µM,0.0035 µM
"CN1CCN(c2ccc(Nc3ncc4ccn(-c5cc(F)c(CN6CCS(=O)(=O)CC6)c(F)c5)c4n3)nc2)CC1 [Example 440, {7-[4-(1,1-Dioxido-thiomorpholin-4-ylmethyl)-3,5-difluoro-phenyl]-7H-pyrrolo[2,3-d]pyrimidin-2-yl}-[5-(4-methyl-piperazin-1-yl)-pyridin-2-yl]-amine]",> 10 µM,> 10 µM,> 10 µM,> 10 µM,0.0032 µM,0.0032 µM
"COCc1c(F)cc(-n2ccc3cnc(Nc4ccc(N5CCN(C)CC5)nc4)nc32)cc1F [Example 446, [7-(3,5-Difluoro-4-methoxymethyl-phenyl)-7H-pyrrolo[2,3-d]pyrimidin-2-yl]-[6-(4-methyl-piperazin-1-yl)-pyridin-3-yl]-amine]",2.65 µM,> 10 µM,7.45 µM,6 µM,0.0043 µM,0.0043 µM
"CC1(C)NCCN(c2cc(Nc3ncc4ccn(-c5cc(F)c(CN6CCOCC6)c(F)c5)c4n3)ccn2)C1=O [Example 503, 1-{4-[7-(3,5-Difluoro-4-morpholin-4-ylmethyl-phenyl)-7H-pyrrolo[2,3-d]pyrimidin-2-ylamino]-pyridin-2-yl}-3,3-dimethyl-piperazin-2-one]",9.5 µM,> 10 µM,> 10 µM,6.1 µM,≤ 0.003 µM,< 0.003 µM
